What was measured:
corn = assay: Test B pre/postemergence corn; format: in vivo, Zea mays; conditions: for Corn plant response rating: scale of 0 to 10 where 0 is no effect and 10 is complete control
Method in brief: (§1)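 Herbicidal effect was estimated by eye on a ten-point control scale after plants spent twelve to sixteen days in a greenhouse following soil or foliar treatment. Foliar sprays targeted plants at one to four leaves; all doses were formulated in a non-phytotoxic solvent with surfactant.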

pigweed = assay: Test B pre/postemergence pigweed; format: in vivo, Amaranthus retroflexus; conditions: for Redroot pigweed plant response rating: scale of 0 to 10 where 0 is no effect and 10 is complete control
Method in brief: as §1

rice = assay: Test B flood test rice; format: in vivo, Oryza sativa; conditions: Pre-emergence
Method in brief: (§2)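 Read-out is a visual response score from 0 (no effect) to 10 (complete control), assigned by comparison with untreated controls. Treatment was applied at the 2-leaf stage, and plants stayed in the greenhouse for twelve to sixteen days before scoring.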

giant foxtail = assay: Test B pre/postemergence giant foxtail; format: in vivo, Setaria faberii; conditions: for Giant foxtail plant response rating: scale of 0 to 10 where 0 is no effect and 10 is complete control
Method in brief: as §1

purple nutsedge = assay: Test B pre/postemergence purple nutsedge; format: in vivo, Cyperus rotundus; conditions: for Nutsedge plant response rating: scale of 0 to 10 where 0 is no effect and 10 is complete control
Method in brief: as §1

velvetleaf = assay: Test B pre/postemergence velvetleaf; format: in vivo, Abutilon theophrasti; conditions: for Velvetleaf plant response rating: scale of 0 to 10 where 0 is no effect and 10 is complete control
Method in brief: as §1

bedstraw = assay: Test B pre/postemergence bedstraw; format: in vivo, Galium aparine; conditions: Preemergence
Method in brief: as §1

smallflower flatsedge = assay: Test B flood test smallflower flatsedge; format: in vivo, Cyperus difformis; conditions: Pre-emergence
Method in brief: as §2

sugar beet = assay: Test B pre/postemergence sugar beet; format: in vivo, Beta vulgaris; conditions: for Sugarbeets plant response rating: scale of 0 to 10 where 0 is no effect and 10 is complete control
Method in brief: as §1

cocklebur = assay: Test B pre/postemergence cocklebur; format: in vivo, Xanthium strumarium
Method in brief: as §1

duck salad = assay: Test B flood test duck salad; format: in vivo, Heteranthera limosa; conditions: Pre-emergence
Method in brief: as §2

surinam grass = assay: Test B pre/postemergence surinam grass; format: in vivo, Brachiaria decumbens
Method in brief: as §1

wild oat = assay: Test B pre/postemergence wild oat; format: in vivo, Avena fatua; conditions: for Wild oats plant response rating: scale of 0 to 10 where 0 is no effect and 10 is complete control
Method in brief: as §1

soybean = assay: Test B pre/postemergence soybean; format: in vivo, Glycine max; conditions: for Soybean plant response rating: scale of 0 to 10 where 0 is no effect and 10 is complete control
Method in brief: as §1

wheat = assay: Test B pre/postemergence wheat; format: in vivo, Triticum aestivum; conditions: for Wheat plant response rating: scale of 0 to 10 where 0 is no effect and 10 is complete control
Method in brief: as §1

rape = assay: Test B pre/postemergence rape; format: in vivo, Brassica napus; conditions: for Rape plant response rating: scale of 0 to 10 where 0 is no effect and 10 is complete control
Method in brief: as §1

[1] = Postemergence, Rate 125 g/ha, scale 0 to 10, 0 is no effect, 10 is complete control
[2] = Preemergence, Rate 62 g/ha, scale 0 to 10 (0 no effect, 10 complete control)
[3] = Rate 500 g/ha, Postemergence, scale 0 to 10, 0 no effect, 10 complete control
[4] = Rate 62 g/ha, flood test species, visual evaluation after twelve to sixteen days
[5] = Rate 125 g/ha, flood test species, scale 0 to 10 where 0 is no effect and 10 is complete control
[6] = Rate 250 g/ha, flood-test species, scale 0 to 10, 0 is no effect, 10 is complete control
[7] = Rate 500 g/ha, flood test species, scale 0 to 10 (0 no effect, 10 complete control)
[8] = Rate 62 g/ha, Postemergence, scale of 0 to 10 where 0 is no effect and 10 is complete control

## CCC(CC)n1c(=O)on(C(=O)N(c2ccc(F)cc2F)C(C)C)c1=O [Compound 353]
corn; [1]
  Plant response rating, Corn: 0
corn; [2]
  Plant response rating, Corn: 0
corn; Preemergence, Rate 125 g/ha
  Corn plant response rating (0 to 10 scale): 3
corn; Preemergence, Rate 250 g/ha
  Corn plant response rating: 3
corn; Preemergence, Rate 500 g/ha
  Corn plant response rating: 7
corn; Rate 62 g/ha, Postemergence
  Corn plant response rating: 0
corn; [3]
  Plant response rating, Corn: 0
pigweed; [1]
  Plant response rating, Redroot pigweed: 3
pigweed; [2]
  Plant response rating, Redroot pigweed: 7
pigweed; Preemergence, Rate 125 g/ha
  Redroot pigweed plant response rating (0 to 10 scale): 10
pigweed; Preemergence, Rate 250 g/ha
  Redroot pigweed plant response rating: 10
pigweed; Preemergence, Rate 500 g/ha
  Redroot pigweed plant response rating: 10
pigweed; Rate 62 g/ha, Postemergence
  Redroot pigweed plant response rating: 2
pigweed; [3]
  Plant response rating, Redroot pigweed: 6
rice; [4]
  Plant response rating, Rice (0 to 10 scale, 0 is no effect, 10 is complete control): 0
rice; [5]
  Rice plant response rating: 0
rice; [6]
  Rice plant response rating: 0
rice; [7]
  Rice plant response rating: 4
Giant foxtail; [1]
  Plant response rating, Giant foxtail: 3
Giant foxtail; [2]
  Plant response rating, Giant foxtail: 9
Giant foxtail; Preemergence, Rate 125 g/ha
  Giant foxtail plant response rating (0 to 10 scale): 10
Giant foxtail; Preemergence, Rate 250 g/ha
  Giant foxtail plant response rating: 10
Giant foxtail; Preemergence, Rate 500 g/ha
  Giant foxtail plant response rating: 10
Giant foxtail; Rate 62 g/ha, Postemergence
  Giant foxtail plant response rating: 0
Giant foxtail; [3]
  Plant response rating, Giant foxtail: 8
Purple nutsedge; [1]
  Plant response rating, Nutsedge: 0
Purple nutsedge; [2]
  Plant response rating, Nutsedge: 0
Purple nutsedge; Preemergence, Rate 125 g/ha
  Nutsedge plant response rating (0 to 10 scale): 0
Purple nutsedge; Preemergence, Rate 250 g/ha
  Nutsedge plant response rating: 0
Purple nutsedge; Preemergence, Rate 500 g/ha
  Nutsedge plant response rating: 0
Purple nutsedge; Rate 62 g/ha, Postemergence
  Nutsedge plant response rating: 0
Purple nutsedge; [3]
  Plant response rating, Nutsedge: 0
velvetleaf; [1]
  Plant response rating, Velvetleaf: 0
velvetleaf; [2]
  Plant response rating, Velvetleaf: 0
velvetleaf; Preemergence, Rate 125 g/ha
  Velvetleaf plant response rating (0 to 10 scale): 1
velvetleaf; Preemergence, Rate 250 g/ha
  Velvetleaf plant response rating: 4
velvetleaf; Preemergence, Rate 500 g/ha
  Velvetleaf plant response rating: 6
velvetleaf; Rate 62 g/ha, Postemergence
  Velvetleaf plant response rating: 0
velvetleaf; [3]
  Plant response rating, Velvetleaf: 2
bedstraw; Rate 62 g/ha, scale 0 to 10 (0 no effect, 10 complete control)
  Plant response rating, Bedstraw: 0
bedstraw; Rate 125 g/ha
  Bedstraw plant response rating (0 to 10 scale): 0
bedstraw; Rate 500 g/ha, scale of 0 to 10 where 0 is no effect and 10 is complete control
  Bedstraw plant response rating: 3
Smallflower flatsedge; [4]
  Plant response rating, S. Flatsedge (0 to 10 scale, 0 is no effect, 10 is complete control): 0
Smallflower flatsedge; [5]
  S. Flatsedge plant response rating: 2
Smallflower flatsedge; [6]
  S. Flatsedge plant response rating: 2
Smallflower flatsedge; [7]
  S. Flatsedge plant response rating: 7
Sugar beet; [1]
  Plant response rating, Sugarbeets: 0
Sugar beet; [2]
  Plant response rating, Sugarbeets: 0
Sugar beet; Preemergence, Rate 125 g/ha
  Sugarbeets plant response rating (0 to 10 scale): 2
Sugar beet; Preemergence, Rate 250 g/ha
  Sugarbeets plant response rating: 2
Sugar beet; Preemergence, Rate 500 g/ha
  Sugarbeets plant response rating: 4
Sugar beet; Rate 62 g/ha, Postemergence
  Sugarbeets plant response rating: 0
Sugar beet; [3]
  Plant response rating, Sugarbeets: 6
cocklebur; [1]
  Plant response rating, Cocklebur: 0
cocklebur; [2]
  Plant response rating, Cocklebur: 0
cocklebur; Preemergence, Rate 125 g/ha
  Cocklebur plant response rating (0 to 10 scale): 0
cocklebur; [8]
  Cocklebur plant response rating: 0
cocklebur; [3]
  Plant response rating, Cocklebur: 1
Duck salad; [4]
  Plant response rating, Ducksalad (0 to 10 scale, 0 is no effect, 10 is complete control): 0
Duck salad; [5]
  Ducksalad plant response rating: 0
Duck salad; [6]
  Ducksalad plant response rating: 0
Duck salad; [7]
  Ducksalad plant response rating: 0
Surinam grass; [1]
  Plant response rating, B. signalgrass: 0
Surinam grass; [2]
  Plant response rating, B. signalgrass: 0
Surinam grass; Preemergence, Rate 125 g/ha
  B. signalgrass plant response rating (0 to 10 scale, 0 is no effect, 10 is complete control): 2
Surinam grass; Preemergence, Rate 250 g/ha, scale of 0 to 10 where 0 is no effect and 10 is complete control
  B. signalgrass plant response rating: 5
Surinam grass; Preemergence, Rate 500 g/ha, scale of 0 to 10 where 0 is no effect and 10 is complete control
  B. signalgrass plant response rating: 5
Surinam grass; [8]
  B. signalgrass plant response rating: 0
Surinam grass; Rate 250 g/ha, Postemergence, scale of 0 to 10 where 0 is no effect and 10 is complete control
  Plant response rating, B. signalgrass: 0
Surinam grass; [3]
  Plant response rating, B. signalgrass: 0
Wild oat; [1]
  Plant response rating, Wild oats: 0
Wild oat; [2]
  Plant response rating, Wild oats: 0
Wild oat; Preemergence, Rate 125 g/ha
  Wild oats plant response rating (0 to 10 scale): 1
Wild oat; Preemergence, Rate 250 g/ha
  Wild oats plant response rating: 4
Wild oat; Preemergence, Rate 500 g/ha
  Wild oats plant response rating: 6
Wild oat; Rate 62 g/ha, Postemergence
  Wild oats plant response rating: 0
Wild oat; [3]
  Plant response rating, Wild oats: 2
soybean; [1]
  Plant response rating, Soybean: 4
soybean; [2]
  Plant response rating, Soybean: 0
soybean; Preemergence, Rate 125 g/ha
  Soybean plant response rating (0 to 10 scale): 0
soybean; Preemergence, Rate 250 g/ha
  Soybean plant response rating: 0
soybean; Preemergence, Rate 500 g/ha
  Soybean plant response rating: 0
soybean; Rate 62 g/ha, Postemergence
  Soybean plant response rating: 4
soybean; [3]
  Plant response rating, Soybean: 6
wheat; [1]
  Plant response rating, Wheat: 0
wheat; [2]
  Plant response rating, Wheat: 0
wheat; Preemergence, Rate 125 g/ha
  Wheat plant response rating (0 to 10 scale): 0
wheat; Preemergence, Rate 250 g/ha
  Wheat plant response rating: 2
wheat; Preemergence, Rate 500 g/ha
  Wheat plant response rating: 2
wheat; Rate 62 g/ha, Postemergence
  Wheat plant response rating: 0
wheat; [3]
  Plant response rating, Wheat: 0
rape; [1]
  Plant response rating, Rape: 2
rape; [2]
  Plant response rating, Rape: 0
rape; Preemergence, Rate 125 g/ha
  Rape plant response rating (0 to 10 scale): 0
rape; Preemergence, Rate 250 g/ha
  Rape plant response rating: 1
rape; Preemergence, Rate 500 g/ha
  Rape plant response rating: 5
rape; Rate 62 g/ha, Postemergence
  Rape plant response rating: 2
rape; [3]
  Plant response rating, Rape: 4
